Active and inactive are the calls of the source. The calls are words filed in the database; no cut-off is given here.
Columns and labels:
[1] = Immunostimulatory activity in human Gamma delta T cells expressing Vgamma2Vdelta2T assessed as proliferation after 16 to 24 hrs by [3H]thymidine incorporation assay; type: functional, cell-based; details: T-cell
[2] = test system: T-cell; experiment: Immunostimulatory activity in human Gamma delta T cells expressing Vgamma2Vdelta2T assessed as proliferation up to 300 uM after 16 to 24 hrs by [3H]thymidine incorporation assay; type: functional, cell-based
[3] = test system: T-cell; experiment: Ratio of compound EC50 to isopentenyl pyrophosphate EC50 for immunostimulatory activity in human Gamma delta T cells expressing Vgamma2Vdelta2T; type: functional

Structure (SMILES) | EC50 [1] [nM] | Activity [2] | Ratio EC50 [3]
C/C(=C\COP(=O)(O)OP(=O)(O)O)COCc1ccc(C(=O)c2ccccc2)cc1 | 1.8 |  | 
C/C(=C\COP(=O)(O)OP(=O)(O)O)COC(=O)c1cccc(C(=O)c2ccccc2)c1 | 0.08 |  | 
C/C(=C\CO)CO[C@@H]1O[C@H](CO)[C@@H](O)[C@H](O)[C@H]1O |  | inactive | 
C/C(=C\COP(=O)(O)OP(=O)(O)O)COC(=O)c1ccc(C(=O)c2ccccc2)cc1 | 0.08 |  | 
CC(=O)OC[C@H]1O[C@@H](OC/C(C)=C/COP(=O)(O)OP(=O)(O)O)[C@H](OC(C)=O)[C@@H](OC(C)=O)[C@@H]1OC(C)=O | 360 |  | 
C/C(=C\COP(=O)(O)OP(=O)(O)O)CO[C@@H]1O[C@H](CO)[C@@H](O)[C@H](O)[C@H]1O | 78 |  | 12
C/C(=C\COP(=O)(O)OP(=O)(O)O)COCc1cccc(C(=O)c2ccccc2)c1 | 1.8 |  | 
C/C(=C\CO[C@@H]1O[C@H](CO)[C@@H](O)[C@H](O)[C@H]1O)CO |  | inactive | 

Source: ChEMBL document CHEMBL1944544, “Synthesis and immunological evaluation of the 4-β-glucoside of HMBPP” (Bioorg Med Chem Lett, 2012)
